Assay results published in US20250041270A1, “SMALL MOLECULE DRUGS THAT REDUCE PROTEIN AGGREGATION” (BIOVENTURES, LLC, priority 2021, published 2025).

Assays:
C. elegans strain CL2355 = experiment: Chemotaxis to n-butanol in Aβ1-42 expressing C. elegans; type: in vivo; details: 0.1 μM
Method: Chemotaxis and paralysis assay)s in Aβ-tragsgenic C elegans strains CL2355 and CL4176. Transgenic C. elegans strains, expressing Aβ1-42 in neurons (C2355) or in muscle (CL4176), were grown at 20° C. with ample 1. coli (OP50) bacteria, and on day 1 of adult life worms were lysed to release eggs and thus generate a synchronized cohort. Eggs were then placed on I00-mm NGM-agar Petri dishes seeded with RNAi-expressing bacteria (E coil H-T1′15) targeting a GFAP orthologue, or empty-vector control bacteria. Worms at the L3-L4 transition were upshifted to 25.5° C. to induce human Aβ1-42 transgene expression and assayed after 48 hours. Chemotaxis (Dosanjh et al., 2010) and paralysis (Dostal and Link, 2010) assays were performed as described previously (Ayyadevara et al., 2017; Ayyadevara et al., 2016b; Ayyadevara et al., 2016d; Kakraba et al., 2019).
(§1) RNAi in C.elegans. RNA-mediated interference (RNAi) is achieved by feeding bacteria that express double-stranded RNA corresponding to an exonic fragment of the mRNA target (Ayyadevara et al., 2016c; Fire et al., 1991; Fire et al., 1998; Kakraba et al., 2019). Briefly, worm cultures were synchronized by alkaline hypochlorite lysis to release unlaid eggs. […] Worms on adult day 3 (5.5 days post-hatch) were imaged to assess total aggregate fluorescence (strain AM141), or were assessed for paralysis (VH255) or chemotaxis toward n-butanol (CL2355).

C. elegans strain AM141 = experiment: Q40::YFP aggregate fluorescence per worm; type: in vivo; details: 5 days post-hatch
From the text: C. elegans strains: Nematode strains used in this study were all obtained from the Caenorhabditis Genetics Center (CGC; Minneapolis, MN). Nematode models of Alzheimer's disease-like arnyloidosis were CL4176 [smg-1^ts; myo-3p::Aβ1-42::let-851 3′-UTR; rol-6(sul006)] expressing human Aβ1-42 in muscle; and CL2355 [smg-l^ts; snb-1::Aβ1-42::3′UTR(long); mtl-2::gfp] expressing human Aβ1-42 in all neurons. Strain AM141 expresses a polyglutamine reporter (Q40::YFP) in muscle, and thus serves as a model of glutamine-tract aggregation similar to that observed in Huntington disease and several other neuropathologies (Morley et al., 2002). All strains were propagated at 20° C. on2% (w/v) agar plates containing nematode growth medium (NGM), overlaid with E col strain OP50 unless otherwise noted.
as §1

SH-SY5Y-APPSw cells = experiment: Total sarkosyl-insoluble aggregate protein, SYPRO Ruby stained gels; type: cell-based, human; details: for suppression of aggregate protein: cells treated 48 h, sarkosyl-insoluble fraction
Method: MSR1 treatment of SH-SY5Y-APPSw, cells. Human neuroblastoma (SH-SY5Y-APPSw) cells were grown as previously described (Kakraba et al., 2)19, Liu et al., 2005). SH-SY5Y-APPSw cells, expressing an aggregation-prone “Swedish” double mutant of amyloid precursor protein (APPSw), were grown in DMEM plus 10% (v/v) FBS at 37° C. Cells were suspended in trypsin/EDTA and rinsed in buffer prior to replating or harvesting. Immediately preceding assay, cells were grown 48 hr in the presence of 10-μM MSR1 dissolved in DMSO (0.02% final concentration), or 0.02% DMSO (solvent alone) for control cells. Cells were harvested, total protein was isolated, and aggregate proteins were purified as described below.
Isolation of aggregate proteins. Cultured human cells were collected, flash frozen in liquid nitrogen, and homogenized at 0° C. in the presence of buffer containing nonionic detergent (1% v/v NP40, 20-mM Hepes pH 7.4, 300-mM NaCl, 2-mM MgCl2, and protease/phosphatase inhibitors [CalBiochem]). Lysates were centrifuged (5 min, 3000 rpm at 4° C.) to remove debris. After removal of cytosolic proteins (soluble in 1% NP40 nonionic detergent) by centrifugation (18 min, 13,000×g at 4° C.), protein pellets were brought to pH 7.4 with 0.1-M HEPES buffer containing 1% v/v sarkosyl(sodium lauryl sarcosinate) and 5-mM EDTA, and centrifuged 30 min at 100,000×g. Pellet proteins (the sarkosyl-insoluble fraction) were resuspended in Laemmli loading buffer (containing 50-mM dithiothreitol and 2% v/v SDS, sodium dodecyl sulfate), heated 5 min at 95° C. to dissolve proteins soluble in this buffer, and separated by electrophoresis on 4-20% polyacrylamide gradient gels containing 1% v/v SDS. Gels were stained with SYPRO Ruby (ThermoFisher) or Coomassie Blue to visualize protein. Gel lanes were robotically cut into 1-mm slices, and digested thoroughly with trypsin. Proteins in each slice were identified by mass spectrometry as described previously (Ayyadevara et al., 2015; Ayyadevara et al., 2016a; Ayyadevara et al., 2016b; Ayyadevara et al., 2016c; Ayyadevara et al., 2016d; Balasubramaniam et al., 2018).

C. elegans strain VH255 = experiment: Paralysis assay in human tau-expressing C. elegans; type: in vivo; details: 1-μM; compared with siRNA against ifp-1
Method: Paralysis assays in human tau-expressing C. elegans strain VH255. Transgenic C. elegans strain VH255, with pan-neuronal expression of human tau (Brandt et al., 2009), are maintained at 25° C. on agar plates overlaid with a lawn of E. coli (OP50) bacteria. Worms are lysed in alkaline hypochlorite solution to obtain unlaid eggs used to generate a synchronized culture. The eggs were then transferred to 100-mm NGM-agar plates, to which MSR1 or MSR2 had been added to a final concentration of 1 μM. For ifp-1 RNAi knockdown, the bacterial lawn consisted of strain HT115 expressing an exonic segment of double-stranded ifp-I RNA (see next section). The worms were washed and added to fresh, drug-equilibrated plates every two days. Assays were performed on day-3 adults to assess the fraction of paralyzed worms.

C. elegans = experiment: Effect on C. elegans development; type: in vivo; details: all doses tested, data not shown
neuroblastoma cells = experiment: Initial testing for cytotoxicity in neuroblastoma cells; type: cell-based, human; details: data not shown

SMILES | chemotaxis restored to (C. elegans strain CL2355) [%] | reduction of aggregate intensity per worm (C. elegans strain AM141; 10 μM) [%] | reduction of aggregate intensity per worm (C. elegans strain AM141; 0.1-μM) [%] | suppression of aggregate protein (SH-SY5Y-APPSw cells) | suppression of protein aggregation (SH-SY5Y-APPSw cells; summary statement: a variety of model systems) | paralysis caused by tau aggregation (C. elegans strain VH255) | C. elegans development (C. elegans) | cytotoxicity (neuroblastoma cells)
O=C(NC[C@H]1CC[C@H](CO)CC1)c1ccc(N2CCCC2)c(Cl)c1 [MSR1, 3-chloro-N-{[trans-4-(hydroxymethyl)cyclo-hexyl]methyl}-4-pyrrolidin-1-ylbenzamide] | ~90 | ~50 | 35 | 60-75% | 60-75% | alleviated to a similar extent |  | 
O=C(c1cc2c([nH]c1=O)CCCC2)N1CCN(c2ccc(Cl)cn2)CC1 [MSR2, 3-{[4-(5-chloro-2-pyridinyl)-1-piperazinyl]carbonyl}-5,6,7,8-tetrahydro-2(1H)-quinolinone] |  |  |  | did not significantly reduce |  |  |  | 
O=C(c1ccc(N2CCCC2)c(Cl)c1)N1CCN(c2ccccn2)CC1 [MSR3, 1-(3-chloro-4-pyrrolidin-1-ylbenzoyl)-4-pyridin-2-ylpiperazine] |  |  |  |  |  |  | delay C. elegans development | cytotoxic
